In Sander's compilation of Henry's law constants (doi:10.1016/0304-3894(88)85057-x):

Experiment: Henry solubility constant Hcp at 298.15 K (mol/(m3 Pa))
Details: reference: Ashworth et al. (1988)

| SMILES | Henry solubility constant Hcp |
| --- | --- |
| Cc1cc(C)cc(C)c1 [1,3,5-trimethylbenzene] | 0.0014 |
| ClC(Cl)(Cl)Cl [tetrachloromethane] | 0.00033 |
| c1ccccc1 [benzene] | 0.0018 |
| Cc1ccccc1 [methylbenzene] | 0.0015 |
| Cc1cccc(C)c1 [1,3-dimethylbenzene] | 0.0013 |
| Clc1cccc(Cl)c1 [1,3-dichlorobenzene] | 0.003 |
| CC(Cl)(Cl)Cl [1,1,1-trichloroethane] | 0.00057 |
| ClCC(Cl)Cl [1,1,2-trichloroethane] | 0.01 |
| CCc1ccccc1 [ethylbenzene] | 0.0012 |
| CCCl [chloroethane] | 0.00079 |
| Cc1ccc(O)c(C)c1 [1-hydroxy-2,4-dimethylbenzene] | 0.0019 |
| C1CCCCC1 [cyclohexane] | 5.5e-05 |
| ClC(Cl)(Cl)C(Cl)(Cl)Cl [hexachloroethane] | 0.0012 |
| CC(=O)CC(C)C [4-methyl-2-pentanone] | 0.022 |
| Clc1ccc(Cl)cc1 [1,4-dichlorobenzene] | 0.0031 |
| Clc1ccccc1 [chlorobenzene] | 0.0025 |
| CCCC(C)C [2-methylpentane] | 1.3e-05 |

| SMILES | Henry solubility constant Hcp |
| --- | --- |
| CCCc1ccccc1 [propylbenzene] | 0.0009 |
| CCCCCC [hexane] | 9.9e-06 |
| CC(Cl)CCl (centres undefined) [1,2-dichloropropane] | 0.0038 |
| C1CCC2CCCCC2C1 (centres undefined) [decahydronaphthalene] | 7.2e-05 |
| C=C(Cl)Cl [1,1-dichloroethene] | 0.00037 |
| ClC(Br)Br [dibromochloromethane] | 0.0085 |
| C=CCl [chloroethene] | 0.0004 |
| c1ccc2c(c1)CCCC2 [1,2,3,4-tetrahydronaphthalene] | 0.0051 |
| ClCCl [dichloromethane] | 0.0034 |
| CCCCCCCCC [nonane] | 2.3e-05 |
| Cc1ccccc1C [1,2-dimethylbenzene] | 0.0019 |
| ClC(Cl)C(Cl)Cl [1,1,2,2-tetrachloroethane] | 0.022 |
| Cc1ccc(C)cc1 [1,4-dimethylbenzene] | 0.0013 |
| ClC=C(Cl)Cl [trichloroethene] | 0.00095 |
| CC(C)c1ccccc1 [(2-propyl)-benzene] | 0.0016 |
| COCCO [2-methoxyethanol] | 0.00022 |
| ClC(Cl)=C(Cl)Cl [tetrachloroethene] | 0.00054 |
